Assay results reported in paper PMC8055690, “Flavonoids increase melanin production and reduce proliferation, migration and invasion of melanoma cells by blocking endolysosomal/melanosomal TPC2” (Scientific Reports, 2021).

Tests used:
[1] = target: T1, two-pore channel 2 (hTPC2) (Homo sapiens, UniProt Q8NHX9); experiment: endolysosomal patch-clamp, block of PI([…])P2-evoked current; type: biochemical
T1 construct: gene TPCN2; hTPC2-YFP stably expressed in HEK293 cells

[2] = target: T1, two-pore channel 2 (hTPC2); experiment: endolysosomal patch-clamp, single concentration […]; type: cell-based

T1 sequence (Q8NHX9 whole entry): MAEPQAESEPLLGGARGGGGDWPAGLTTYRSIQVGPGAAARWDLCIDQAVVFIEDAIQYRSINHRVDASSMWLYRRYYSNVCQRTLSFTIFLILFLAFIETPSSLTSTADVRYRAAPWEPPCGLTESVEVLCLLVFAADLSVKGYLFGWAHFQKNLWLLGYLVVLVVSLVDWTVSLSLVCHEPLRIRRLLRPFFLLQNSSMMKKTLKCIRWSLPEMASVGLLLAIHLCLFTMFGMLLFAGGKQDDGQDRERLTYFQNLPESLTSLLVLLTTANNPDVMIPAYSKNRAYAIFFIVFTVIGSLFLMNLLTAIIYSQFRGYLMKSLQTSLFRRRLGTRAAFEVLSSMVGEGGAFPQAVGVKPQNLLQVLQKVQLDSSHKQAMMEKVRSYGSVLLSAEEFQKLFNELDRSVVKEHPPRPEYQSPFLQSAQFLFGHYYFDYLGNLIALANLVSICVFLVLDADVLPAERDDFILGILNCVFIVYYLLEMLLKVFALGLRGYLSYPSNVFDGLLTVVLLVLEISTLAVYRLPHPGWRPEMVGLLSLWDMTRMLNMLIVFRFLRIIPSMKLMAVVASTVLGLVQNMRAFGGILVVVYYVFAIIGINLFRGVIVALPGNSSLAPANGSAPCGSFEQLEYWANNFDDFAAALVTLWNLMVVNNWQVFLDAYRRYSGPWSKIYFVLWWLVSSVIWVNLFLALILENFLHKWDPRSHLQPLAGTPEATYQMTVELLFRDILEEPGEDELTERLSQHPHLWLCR

| IC50 [1] [µM] | SMILES | endolysosomal patch-clamp, single concentration 10 μM [2] |
| --- | --- | --- |
| 2.6 ± 0.3 | COc1ccc(-c2coc3cc(O)cc(O)c3c2=O)cc1O [MT-8, pratensein] |  |
|  | COc1ccc(-c2coc3cc(O)cc(O)c3c2=O)cc1 [TR-9] | TR-9 and TR-12 which showed variable effects on melanin generation also proved to be less efficacious inhibitors of hTPC2 |
|  | O=C1C[C@@H](c2ccccc2)Oc2cc(O)cc(O)c21 [TR-12] | TR-9 and TR-12 which showed variable effects on melanin generation also proved to be less efficacious inhibitors of hTPC2 |
| 9.5 ± 2.8 | COc1ccc([C@@H]2COc3c(ccc(O)c3OC)C2)c(OC)c1O [UM-9, duartin] |  |

| SMILES | IC50 [1] [µM] | endolysosomal patch-clamp, single concentration 10 μM [2] |
| --- | --- | --- |
| O=C1C[C@@H](c2ccc(O)cc2)Oc2cc(O)cc(O)c21 [MT-16, naringenin] | 74 ± 9 |  |
